Data reported in ChEMBL document CHEMBL1201862, “PubChem BioAssay data set” (2004).
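48-hour exposure; five concentrations; linearly interpolated endpoints. GI50 marks 50% less growth.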 Calls of active or inactive are those of the source. Rule as the data show it: active = GI50 up to about 1.1 µM and inactive = higher.

Assays:
Assay in all cases: NCI anticancer screen, dose series, 48 h
CAKI-1 = test system: CAKI-1
SF-268 = test system: SF-268
SF-295 = test system: SF-295
DMS-273 = test system: DMS-273
SW-620 = test system: SW-620
UACC-257 = test system: UACC-257
DLD-1 = test system: DLD-1
COLO 205 = test system: COLO 205
NCI-H460 = test system: NCI-H460
HOP-62 = test system: HOP-62
SK-MEL-2 = test system: SK-MEL-2
OVCAR-8 = test system: OVCAR-8
M14 = test system: M14
HCC 2998 = test system: HCC 2998
HOP-92 = test system: HOP-92
IGROV-1 = test system: IGROV-1
SK-OV-3 = test system: SK-OV-3
RPMI-8226 = test system: RPMI-8226
TK-10 = test system: TK-10
NCI-H226 = test system: NCI-H226

Measured: GI50

O=c1[nH]c(=O)n(C2CC(O)C(CO)O2)cc1C(OCC(F)(F)F)OCC(F)(F)F (stereo not given)
inactive: CAKI-1 > 100 µM | SF-268 > 100 µM | SF-295 > 100 µM | DMS-273 > 100 µM | SW-620 > 100 µM | UACC-257 > 100 µM | DLD-1 > 100 µM | COLO 205 > 100 µM | NCI-H460 > 100 µM | HOP-62 > 100 µM | SK-MEL-2 > 100 µM | OVCAR-8 > 100 µM | M14 > 100 µM | HCC 2998 > 100 µM | HOP-92 > 100 µM | IGROV-1 > 100 µM | SK-OV-3 > 100 µM | RPMI-8226 > 100 µM | TK-10 > 100 µM

CN(C)C(=S)/N=c1\ssc(=S)n1C
inactive: CAKI-1 > 100 µM | SF-268 > 100 µM | SF-295 > 100 µM | DMS-273 > 100 µM | SW-620 > 100 µM | UACC-257 > 100 µM | DLD-1 > 100 µM | NCI-H460 > 100 µM | HOP-62 > 100 µM | SK-MEL-2 > 100 µM | OVCAR-8 > 100 µM | M14 > 100 µM | HCC 2998 > 100 µM | HOP-92 > 100 µM | IGROV-1 > 100 µM | SK-OV-3 > 100 µM | RPMI-8226 > 100 µM | NCI-H226 > 100 µM | TK-10 > 100 µM

O=C(NN1C(=O)CS(=O)(=O)C1c1ccc(Cl)c(Cl)c1)c1ccncc1 (stereo not given)
inactive: CAKI-1 > 100 µM | SF-268 > 81.5 µM | SF-295 > 87.5 µM | DMS-273 > 31.6 µM | SW-620 > 100 µM | UACC-257 > 100 µM | DLD-1 > 100 µM | COLO 205 > 100 µM | NCI-H460 > 100 µM | HOP-62 > 100 µM | SK-MEL-2 > 100 µM | OVCAR-8 > 100 µM | HCC 2998 > 100 µM | HOP-92 > 100 µM | IGROV-1 > 100 µM | SK-OV-3 57.5 µM | RPMI-8226 > 41.7 µM | NCI-H226 > 100 µM

C[N+](C)([O-])CCOc1cc2c(c3ccccc13)-c1ccccc1C2=O
inactive: CAKI-1 21.5 µM | SF-268 10.9 µM | SF-295 4.63 µM | DMS-273 16.3 µM | SW-620 12.3 µM | UACC-257 6.65 µM | DLD-1 17 µM | COLO 205 16.3 µM | NCI-H460 9.44 µM | HOP-62 14.2 µM | SK-MEL-2 18.4 µM | OVCAR-8 6.27 µM | HCC 2998 13.7 µM | HOP-92 7.66 µM | IGROV-1 19.1 µM | SK-OV-3 35.4 µM | RPMI-8226 12.3 µM | NCI-H226 15.7 µM

CN(C)CCNC(=O)c1cccc2ccc(-c3ccc(F)cc3)nc12
inactive: CAKI-1 2.69 µM | SF-268 5.27 µM | SF-295 5.7 µM | DMS-273 2.82 µM | SW-620 3.08 µM | UACC-257 5.51 µM | DLD-1 3.64 µM | COLO 205 2.43 µM | NCI-H460 2.86 µM | HOP-62 11.7 µM | SK-MEL-2 9.18 µM | OVCAR-8 3.3 µM | HCC 2998 6.46 µM | HOP-92 4.25 µM | IGROV-1 4.16 µM | SK-OV-3 7.62 µM | RPMI-8226 3.31 µM | NCI-H226 3.53 µM

O=C(O)C12CCCCC1CCCC2 (stereo not given)
inactive: CAKI-1 > 100 µM | SF-268 > 100 µM | SF-295 > 100 µM | DMS-273 > 100 µM | SW-620 > 100 µM | DLD-1 > 100 µM | COLO 205 > 100 µM | NCI-H460 > 100 µM | HOP-62 > 100 µM | OVCAR-8 > 100 µM | M14 > 100 µM | HCC 2998 > 100 µM | HOP-92 > 100 µM | IGROV-1 > 100 µM | SK-OV-3 > 100 µM | RPMI-8226 > 100 µM | NCI-H226 > 100 µM | TK-10 > 100 µM
